PMC9110766, “Structure-Based Design of 2-Aminopurine Derivatives as CDK2 Inhibitors for Triple-Negative Breast Cancer” (Frontiers in Pharmacology, 2022)
Counter-ions that a name gives are not always drawn.

Experiments:
[1] = biological target: CDK2/cyclin A (Homo sapiens, UniProt P24941); assay: CDK2 inhibition, Kinase-Glo Luminescent Kinase Assay; format: biochemical; settings: for CDK2 inhibitory activity (in words): screened at 0.5 μM; for IC50: geometric means of n ⩾ 3 experiments, 10 µM ATP, read-out: IC50 against CDK2; for inhibition at 0.5 µM: read-out: inhibition rate (%) @0.5 μM against CDK2, compound at 0.5 μM
Protocol: The IC50 values were calculated using Prism GraphPad software.

Which melting point does the source give for `O=[N+]([O-])c1cccc(Nc2nc(-c3cccc([N+](=O)[O-])c3)c3nc[nH]c3n2)c1` [Compound 5f, N,6-bis(3-nitrophenyl)-9H-purin-2-amine] here?
The melting point was > 300 °C.

And the “CDK2 inhibitory activity (in words)” value [1]?
The value was “abolished CDK2 inhibitory activity”.

Which results are given for `Cl.NCc1ccc(-c2nc(Nc3ccccc3)nc3[nH]cnc23)cc1` [Compound 11g, 6-(4-(aminomethyl)phenyl)-N-phenyl-9H-purin-2-amine hydrochloride]?
melting point: 200 to 202 °C; IC50 [1]: 130 ± 20 nM

For `O=[N+]([O-])c1cccc(Nc2nc(-c3ccsc3)c3nc[nH]c3n2)c1` [Compound 5e, N-(3-nitrophenyl)-6-(thiophen-3-yl)-9H-purin-2-amine], which melting point is on record?
Its melting point is > 280 °C.

What about the “CDK2 inhibitory activity (in words)” value [1] of the same compound?
Its value is “inactive”.

Which melting point does the source give for `Cl.NCc1ccc(-c2nc(Nc3cccc([N+](=O)[O-])c3)nc3[nH]cnc23)cc1` [Compound 11d, 6-(4-(aminomethyl)phenyl)-N-(3-nitrophenyl)-9H-purin-2-amine hydrochloride] here?
Its melting point is > 300 °C.

What about the IC50 [1] of the same compound?
Its IC50 is 230 ± 10 nM.

For `Cl.NCc1cccc(-c2nc(Nc3ccc(N4CCNCC4)cc3)nc3[nH]cnc23)c1` [Compound 11k, 6-(3-(aminomethyl)phenyl)-N-(4-(piperazin-1-yl)phenyl)-9H-purin-2-amine hydrochloride], which melting point is on record?
The melting point was > 300 °C.

What about the inhibition at 0.5 µM [1] of the same compound?
The inhibition at 0.5 µM was 26%.

Which IC50 [1] does the source give for `O=C(O)c1cccc(-c2nc(Nc3cccc([N+](=O)[O-])c3)nc3[nH]cnc23)c1` [Compound 5g, 3-(2-((3-nitrophenyl)amino)-9H-purin-6-yl)benzoic acid] here?
The IC50 was 150 ± 10 nM.

Which results are given for `Cc1ccc(Nc2nc(-c3cccc(CN)c3)c3nc[nH]c3n2)cc1.Cl` [Compound 11i, 6-(3-(aminomethyl)phenyl)-N-(p-tolyl)-9H-purin-2-amine hydrochloride]?
melting point: > 300 °C; IC50 [1]: 280 ± 20 nM

What does the source list for `CN(C)S(=O)(=O)c1ccc(Nc2nc(-c3cccc(CN)c3)c3nc[nH]c3n2)cc1.Cl` [Compound 11q, 4-((6-(3-(aminomethyl)phenyl)-9H-purin-2-yl)amino)-N,N-dimethylbenzene sulfonamide hydrochloride]?
melting point: > 300 °C; IC50 [1]: 180 ± 20 nM

With `O=[N+]([O-])c1cccc(Nc2nc(-c3ccc4c(c3)OCO4)c3nc[nH]c3n2)c1` [Compound 5d, 6-(benzo[d][1,3]dioxol-5-yl)-N-(3-nitrophenyl)-9H-purin-2-amine] as the compound, how does the melting point read?
The melting point was 260 °C (dec.).

What about the inhibition at 0.5 µM [1] of the same compound?
The inhibition at 0.5 µM was 7%.

What about the “CDK2 inhibitory activity (in words)” value [1] of the same compound?
The value was “weak activity”.

Which results are given for `Cl.NCc1cccc(-c2nc(Nc3ccc(-c4ccccc4)cc3)nc3[nH]cnc23)c1` [Compound 11h, N-([1,1′-biphenyl]-4-yl)-6-(3-(aminomethyl)phenyl)-9H-purin-2-amine hydrochloride]?
melting point: 210 °C (dec.); inhibition at 0.5 µM [1]: 13%

For `Cl.NCc1cccc(-c2nc(Nc3ccc(F)cc3)nc3[nH]cnc23)c1` [Compound 11n, 6-(3-(aminomethyl)phenyl)-N-(4-fluorophenyl)-9H-purin-2-amine hydrochloride], which melting point is on record?
The melting point was > 300 °C.

What about the IC50 [1] of the same compound?
The IC50 was 320 ± 60 nM.

With `Cl.NCc1cccc(-c2nc(Nc3ccccc3)nc3[nH]cnc23)c1` [Compound 11f, 6-(3-(aminomethyl)phenyl)-N-phenyl-9H-purin-2-amine hydrochloride] as the compound, how does the melting point read?
Its melting point is 203 to 205 °C.

And the inhibition at 0.5 µM [1]?
The inhibition at 0.5 µM was 35%.

Which melting point does the source give for `COC(=O)c1ccc(-c2nc(Nc3cccc([N+](=O)[O-])c3)nc3[nH]cnc23)cc1` [Compound 5k, Methyl 4-(2-((3-nitrophenyl)amino)-9H-purin-6-yl)benzoate] here?
Its melting point is 212 to 214 °C.

What about the inhibition at 0.5 µM [1] of the same compound?
Its inhibition at 0.5 µM is 3%.

What about the “CDK2 inhibitory activity (in words)” value [1] of the same compound?
Its value is “abolished CDK2 inhibitory activity”.

With `O=C(O)c1ccc(-c2nc(Nc3cccc([N+](=O)[O-])c3)nc3[nH]cnc23)cc1` [Compound 5j, 4-(2-((3-nitrophenyl)amino)-9H-purin-6-yl)benzoic acid] as the compound, how does the melting point read?
Its melting point is > 300 °C.

What about the inhibition at 0.5 µM [1] of the same compound?
The inhibition at 0.5 µM was 7%.

What about the “CDK2 inhibitory activity (in words)” value [1] of the same compound?
Its value is “low activity”.

Which melting point does the source give for `O=[N+]([O-])c1cccc(Nc2nc(-c3cccc4ccccc34)c3nc[nH]c3n2)c1` [Compound 5b, 6-(naphthalen-1-yl)-N-(3-nitrophenyl)-9H-purin-2-amine] here?
Its melting point is > 300 °C.

What about the inhibition at 0.5 µM [1] of the same compound?
The inhibition at 0.5 µM was 3%.

What about the “CDK2 inhibitory activity (in words)” value [1] of the same compound?
Its value is “weak activity”.

For `NCc1ccc(-c2nc(Nc3ccc(F)cc3)nc3[nH]cnc23)cc1` [Compound 11o, 6-(4-(aminomethyl)phenyl)-N-(4-fluorophenyl)-9H-purin-2-amine hydrochloride], which IC50 [1] is on record?
The IC50 was 240 ± 10 nM.

For `Cl.O=[N+]([O-])c1cccc(Nc2nc(-c3ccc[nH]3)c3nc[nH]c3n2)c1` [Compound 5c, N-(3-nitrophenyl)-6-(1H-pyrrol-2-yl)-9H-purin-2-amine hydrochloride], which melting point is on record?
The melting point was 236 °C (dec.).

What about the inhibition at 0.5 µM [1] of the same compound?
Its inhibition at 0.5 µM is 37%.

With “6-(3-(aminomethyl)phenyl)-N-(4-(piperazin-1-yl)phenyl)-9H-purin-2-amine dihydrochloride [Compound 11r]” as the compound, how does the IC50 [1] read?
The IC50 was 190 ± 10 nM.

With `Cl.Nc1ccc(-c2nc(Nc3cccc([N+](=O)[O-])c3)nc3[nH]cnc23)cc1` [Compound 11b, 6-(4-aminophenyl)-N-(3-nitrophenyl)-9H-purin-2-amine hydrochloride] as the compound, how does the melting point read?
Its melting point is > 300 °C.

And the inhibition at 0.5 µM [1]?
The inhibition at 0.5 µM was 40%.

For `COC(=O)c1cccc(-c2nc(Nc3cccc([N+](=O)[O-])c3)nc3[nH]cnc23)c1` [Compound 5h, Methyl 3-(2-((3-nitrophenyl)amino)-9H-purin-6-yl)benzoate], which melting point is on record?
The melting point was 257 °C.

And the inhibition at 0.5 µM [1]?
Its inhibition at 0.5 µM is 11%.

And the “CDK2 inhibitory activity (in words)” value [1]?
Its value is “abolished CDK2 inhibitory activity”.

For `Cl.Cl.NCc1cccc(-c2nc(Nc3cccc(N)c3)nc3[nH]cnc23)c1` [Compound 11m, N ^ 1-(6-(3-(aminomethyl)phenyl)-9H-purin-2-yl)benzene-1,3-diamine dihydrochloride], which melting point is on record?
Its melting point is > 300 °C.

And the inhibition at 0.5 µM [1]?
Its inhibition at 0.5 µM is 33%.

For `O=[N+]([O-])c1cccc(Nc2nc(-c3ccc(F)cc3)c3nc[nH]c3n2)c1` [Compound 5i, 6-(4-fluorophenyl)-N-(3-nitrophenyl)-9H-purin-2-amine], which “CDK2 inhibitory activity (in words)” value [1] is on record?
Its value is “abolished CDK2 inhibitory activity”.

What does the source list for `Cl.NCCc1cccc(-c2nc(Nc3cccc([N+](=O)[O-])c3)nc3[nH]cnc23)c1` [Compound 11e, 6-(3-(2-aminoethyl)phenyl)-N-(3-nitrophenyl)-9H-purin-2-amine hydrochloride]?
melting point: > 230 °C; inhibition at 0.5 µM [1]: 35%

For `CC(C)(C)c1ccc(Nc2nc(-c3cccc(CN)c3)c3nc[nH]c3n2)cc1` [Compound 11j, 6-(3-(aminomethyl)phenyl)-N-(4-(tert-butyl)phenyl)-9H-purin-2-amine hydrochloride], which inhibition at 0.5 µM [1] is on record?
The inhibition at 0.5 µM was 28%.

Which IC50 [1] does the source give for `O=[N+]([O-])c1cccc(Nc2nc(-c3ccccc3)c3nc[nH]c3n2)c1` [Compound 5a, N-(3-nitrophenyl)-6-phenyl-9H-purin-2-amine] here?
Its IC50 is 310 ± 10 nM.
